Source: article PMC9135895, “The effects of two gold-N-heterocyclic carbene (NHC) complexes in ovarian cancer cells: a redox proteomic study” (Cancer Chemotherapy and Pharmacology, 2022)

How the values were obtained:
[1] = target: T1, Glyceraldehyde-3-phosphate dehydrogenase (GAPDH) (Homo sapiens, UniProt P04406); test: GAPDH activity ([…] nm) in A2780 crude cell extract after […] min pre-incubation; format: biochemical
T1 construct: endogenous GAPDH in A2780 cell extract

[2] = target: T1, Glyceraldehyde-3-phosphate dehydrogenase (GAPDH); test: GAPDH activity ([…] nm) in A2780 crude cell extract after […] min pre-incubation; no adduct seen by ESI-MS with rabbit GAPDH; format: biochemical

T1 sequence (P04406 2-335): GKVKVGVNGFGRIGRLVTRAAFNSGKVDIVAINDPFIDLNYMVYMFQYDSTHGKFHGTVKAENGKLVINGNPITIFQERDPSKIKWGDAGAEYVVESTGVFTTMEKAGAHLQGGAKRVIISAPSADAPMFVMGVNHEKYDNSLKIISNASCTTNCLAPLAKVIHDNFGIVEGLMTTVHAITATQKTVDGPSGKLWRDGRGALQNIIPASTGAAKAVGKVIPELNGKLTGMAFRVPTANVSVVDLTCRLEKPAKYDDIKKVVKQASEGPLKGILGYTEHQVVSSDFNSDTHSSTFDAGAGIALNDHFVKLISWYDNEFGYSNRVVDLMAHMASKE

Compound | EC50 [1] [µM] | EC50 [2] [µM]
CCCCn1cc[n+](C)[c]1[Au-][Cl] [compound 1, chlorido (1-butyl-3-methyl-imidazole-2-ylidene) gold(I)] | 2.86 ± 0.3 | 
CCCCn1cc[n+](C)[c]1[AuH][c]1n(CCCC)cc[n+]1C [compound 2, bis(1-butyl-3-methyl-imidazole-2-ylidene) gold(I)] |  | 7.13 ± 0.1
